Assay results published in paper PMC7395176, “Retromer stabilization results in neuroprotection in a model of Amyotrophic Lateral Sclerosis” (Nature Communications, 2020).

Columns and labels:
VPS35 [1] = target: T1, VPS35 (Mus musculus, UniProt Q9EQH3+Q9QZ88); assay: VPS35 levels in MNs and lumbar SC of treated G93A mice; type: in vivo; set-up: from tissue; host or cells: mouse (lumbar) spinal cord, motor neurons; settings: 10 mg/kg, day 100
Procedure: We asked whether compound 2a could do the same in G93A MNs, using confocal microscopy to quantify VPS35 fluorescence levels in MNs gated in the ventral horn of lumbar SCs. We observed a significant reduction of VPS35 mean fluorescence intensity (MFI) levels in vehicle-treated G93A mice. […] We next assayed VPS26 MFI levels on parallel sections.
Fluorescence intensity levels of VPS35, VPS26, CI-MPR, Sortilin, CTSD and Ubiquitin were calculated using NHI-Image J software (US National Institutes of Health) according to the following protocol: stacks of confocal images were used to generate the maximal projections using the Leica Application Suite X (2.0.0.14332) software and then postprocessed by NHI-Image J to crop single NeuN^+ MNs from the ventral horn of the spinal cord. We next performed background (calculated on adjacent slices only receiving secondary antibodies) subtraction for each channel, before applying the NHI-Image J mean filter (with radius 2.0 pixels) to calculate mean NeuN fluorescence levels in individual MNs. Using this approach, we established a region of interest (ROI) to gate single MNs. On this ROI, we measured mean fluoresce levels (MFI) of target proteins.
Compound 2a increases VPS35 levels in G93A mice […]

VPS35 [2] = target: T1, VPS35; assay: Cycloheximide (CHX) chase assay of VPS35 degradation in Neuro2a cells; type: cell-based; set-up: We incubated Neuro2a cells with compounds 2a–6a (10 µM); endogenous in cells; host or cells: Neuro2a (ATCC CCL-131); settings: 10 µM 24 h pretreatment, CHX up to 8 h
Procedure: We next measured VPS35 degradation rates by a cycloheximide (CHX) chase assay. Neuro2a cells received vehicle or compound 2a (10 µM) for 24 h, then CHX was added and VPS35 levels were measured by WB.
Cycloheximide (CHX) assay was done on Neuro2a cells seeded in 6-well plates and incubated with compound 2a (10 µM) or vehicle for 24 h. We next added CHX (Sigma–Aldrich) at 10 µg/mL and cells were collected at 0, 2, 4, and 8 h for the time-course assay of VPS35 levels by WB.
Compound 2a stabilizes VPS35 levels in Neuro2a cells
A cycloheximide (CHX) chase assay was performed to determine the degradation rate of VPS35 in Neuro2a cells (3x10^5 cells/well). Cells were treated with vehicle or 2a (10 µM) for 24 h, and then chased with CHX (10 µg/mL) for 2, 4 and 8h.
WBs for VPS35 and β-Actin levels. Quantifications of normalized VPS35 levels (means normalized ratios ± SEM versus the time 0) are shown inpanel b (vehicle: n=10 independent wells, 2a: n=8 independent wells obtained from 3 independent experiments; control vs. 2a at 8 hours: p=0.009). c, quantitative real time PCR for Vps35, Vps26 and Vps29 mRNA (Vps35: controls n=8 independent wells; 2a: n=9 independent wells; Vps26 and Vps29: n=9 independent wells/group); data were collected from 3 independent experiments. […]

VPS26 = VPS26 / VPS26b levels in MNs and lumbar SC of treated G93A mice; type: in vivo; settings: 10 mg/kg, day 100

NC(N)=N/N=C/c1cccc(/C=N/N=C(N)N)c1 [compound 2a, phenyl-1,3-bis-guanylhydrazone]
VPS35 levels in lumbar SC extracts (WB) (VPS35 [1]): increase VPS35 and VPS26b levels | VPS35 mean fluorescence intensity (MFI) in MNs (VPS35 [1]): significantly increased | VPS35 degradation in CHX chase (VPS35 [2]): protected VPS35 from degradation | VPS26b levels in lumbar SC extracts (WB) (VPS26): increase VPS35 and VPS26b levels
